The text below walks through data of patent publication US20260007756A1, “COMPOUND AND USE THEREOF” (COHERENT BIOPHARMA (SUZHOU) LIMITED, priority 2022, published 2026).

A short description of series [1]: Single-dose PK assessment, tumor concentration in HT-29 xenograft mice. The format is in vivo, BALB/c nude male mouse. To be noted: 2 mg/kg CR20274 single tail vein injection, 5 min.
A further series deals with A549. Kind of series: Expansion inhibition of tumor cells (Example 7, CCK-8). Format: cell-based. To be noted: Homo sapiens, A549 (no detectable FOLR1 or PSMA expression), 72 h. Here is the method: (§1) Samples were serially diluted with medium (serially 5-fold diluted from 10 μM) to 9 concentrations. […] Negative and blank controls were set.
(§2) A CCK-8 developing solution was added at 10 μL/well (10% of the liquid volume in the wells). The plates were incubated at 37° C. for a proper time (the OD value was controlled within the range of 1.0-2.5 as possible). The plate covers were removed, and the 96-well plates were loaded on a microplate reader (Molecular Devices SpectraMax iD5) to read the measurement at 450 nm.

The subject of another series is PC-3. The series is described as above. The format is cell-based. The following applies: Homo sapiens, PC-3 (no detectable FOLR1 or PSMA expression), 72 h. Here is the method:
as §1, §2

The next series deals with NCI-H460. The description is as above. Format: cell-based. The following applies: Homo sapiens, NCI-H460 (no detectable FOLR1 or PSMA expression), 72 h. As to the method:
as §1, §2

The next series relates to HepG2. The description is as above. Format: cell-based. The following applies: Homo sapiens, HepG2 (no detectable FOLR1 or PSMA expression), 72 h. Here is the method: as §1, §2
Series [2] has as its system HT-29 cell subcutaneous xenograft tumor. Kind of series: Pharmacodynamic assessment, HT-29 xenograft model. Format: in vivo, BALB/c nude mouse. An excerpt:
Objective: Pre-clinical assessment of the efficacy of CR202 series of compounds for treating BALB/c nude mouse model with HT-29 cell subcutaneous xenograft tumor.
Procedures: HT-29 cells were subcutaneously grafted at the right back of the mice, and the mice were randomized when the mean tumor volume reached 100-150 mm^3. After the administration, the routine monitoring included the effect on tumor growth and the effect of treatment on the normal behavior of the animals, specifically the activity, food and water intake, weight gain or loss, the eyes, the hair, and other abnormal conditions. Clinical symptoms observed during the study were recorded in the raw data. After the administration was started, the body weight and tumor size of the mice were measured periodically. The tumor volume was calculated using the following formula: V=1/2×(a×b^2), where a and b denote the long diameter and short diameter of the tumor, respectively.

Where [3] appears, read: 2 mg/kg i.v BIW×3, day 25 after grouping.
Where [4] appears, read: 4 mg/kg i.v BIW×3, day 25 after grouping.

One may read the IC50 as the concentration at which inhibition is half-maximal. High values mean lower potency, low ones higher potency. The term TGI denotes how far tumour growth fell short of that in controls. Low readings indicate little slowing of growth, high ones much slowing of growth. For `CC[C@@H]1C(=O)N(C)c2cnc(Nc3ccc(-c4cn([C@H]5CC[C@@H](NCCOCCC#Cc6cccc7c6CN(C6CCC(=O)NC6=O)C7=O)CC5)nn4)cc3OC)nc2N1C1CCCC1` (stereo partly drawn) [CR20274], in series [1], the “Concentration of CR20274 in tumors (C2)” value was 0.227 nmol/g. Further, the IC50 with A549 amounted to 0.124 µM; in the series on PC-3, 0.103 µM; in the series with NCI-H460, 0.314 µM; with HepG2, 0.107 µM. Also, the Mean tumor volume in series [2] (setting [3]) is on record as 1575.84 mm^3; in series [2] (setting [4]), 1316.64 mm^3. The results for the TGI in series [2] (setting [3]) and in series [2] (setting [4]) were 24.23% and 36.69%, respectively.
